Starred links: 1 amine or outer side, 2 acyl side, 3 side chain; linkers in the order of their positions; H or OH if unused. Non-standard residues stand in square brackets, D forms with d. Residues, ends and D or L forms follow the SMILES beside them. Groups on a side chain read outwards from the residue. *: point of attachment. C20 diacid = O=C(O)CCCCCCCCCCCCCCCCCCC(=O)*; C18 diacid = O=C(O)CCCCCCCCCCCCCCCCC(=O)*; γGlu = O=C(O)[C@H](CCC(=O)[*:2])N[*:1]; αMeF = C[C@](N)(Cc1ccccc1)C(=O)O; AEEA = NCCOCCOCC(=O)O; Aib = CC(C)(N)C(=O)O
Assays:
[1] = molecular target: human GLP-1 receptor (hGLP-1R) (Homo sapiens, UniProt P43220); assay: cAMP production (HTRF) in CHO cells expressing hGLP-1R; type: cell-based; design: expressed in transfected cells; details: for EC50: Table 6, peptides modified at position 17, cAMP in CHO hGLP-1R cells, geometric mean, read-out: hGLP-1R EC50; for % Relative Potency Ratio: Table 6, % GLP-1R activity relative to GLP-1 / % GlucR activity relative to glucagon
How it was run: (§1)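 Cells were resuspended in assay buffer at batch-optimized density, typically 1×10^5 cells/mL for hGLP-1R and 2×10^5 cells/mL for hGCGR. After 30 min incubation at room temperature with compound, cAMP was measured by two-step HTRF. EC50 values came from 4-parameter logistic fits of % Delta F.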

[2] = molecular target: human glucagon receptor (hGCGR) (Homo sapiens, UniProt P47871); assay: cAMP production (HTRF) in CHO cells expressing hGCGR; type: cell-based; design: expressed in transfected cells; details: Table 6, peptides modified at position 17; cAMP in CHO hGCGR cells; geometric mean; read-out: hGluc-R EC50
How it was run: as §1

Chain of human glucagon receptor (hGCGR) (P47871 26-477): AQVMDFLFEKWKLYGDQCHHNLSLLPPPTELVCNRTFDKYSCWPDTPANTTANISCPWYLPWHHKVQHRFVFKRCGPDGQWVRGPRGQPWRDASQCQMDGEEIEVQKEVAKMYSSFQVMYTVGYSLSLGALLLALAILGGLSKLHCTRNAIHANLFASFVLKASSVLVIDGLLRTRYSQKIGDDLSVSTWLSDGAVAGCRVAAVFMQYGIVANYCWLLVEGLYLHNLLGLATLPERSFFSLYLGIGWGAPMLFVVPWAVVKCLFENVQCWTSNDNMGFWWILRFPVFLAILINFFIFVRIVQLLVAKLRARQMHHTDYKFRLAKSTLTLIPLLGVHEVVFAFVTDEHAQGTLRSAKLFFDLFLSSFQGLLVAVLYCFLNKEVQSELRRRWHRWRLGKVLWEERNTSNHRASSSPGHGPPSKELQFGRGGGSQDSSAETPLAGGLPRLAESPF
Chain of human GLP-1 receptor (hGLP-1R) (P43220 24-463): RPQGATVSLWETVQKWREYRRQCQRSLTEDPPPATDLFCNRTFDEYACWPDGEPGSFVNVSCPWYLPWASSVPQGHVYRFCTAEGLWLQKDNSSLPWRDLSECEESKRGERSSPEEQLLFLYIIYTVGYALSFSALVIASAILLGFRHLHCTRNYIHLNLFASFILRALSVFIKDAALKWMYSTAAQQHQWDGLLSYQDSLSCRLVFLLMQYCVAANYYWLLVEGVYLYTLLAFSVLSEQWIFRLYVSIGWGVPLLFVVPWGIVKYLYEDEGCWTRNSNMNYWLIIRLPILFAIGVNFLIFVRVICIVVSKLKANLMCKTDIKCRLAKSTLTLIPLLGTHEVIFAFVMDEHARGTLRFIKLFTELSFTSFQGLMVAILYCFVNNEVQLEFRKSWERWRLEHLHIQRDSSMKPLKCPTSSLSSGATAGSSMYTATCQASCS

Structure (SMILES)	EC50 [1] [nM]	% Relative Potency Ratio [1]	EC50 [2] [nM]
CC(C)C[C@H](NC(=O)[C@H](Cc1c[nH]c2ccccc12)NC(=O)[C@H](CCC(N)=O)NC(=O)[C@@H](NC(=O)[C@H](Cc1ccccc1)NC(=O)[C@H](CC(=O)O)NC(=O)[C@H](CCC(N)=O)NC(=O)[C@H](C)NC(=O)[C@H](CCCNC(=N)N)NC(=O)[C@H](CCCCNC(=O)COCCOCCNC(=O)COCCOCCNC(=O)CC[C@H](NC(=O)CCCCCCCCCCCCCCCCC(=O)O)C(=O)O)NC(=O)[C@H](CO)NC(=O)[C@H](CC(=O)O)NC(=O)[C@H](CC(C)C)NC(=O)[C@](C)(Cc1ccccc1)NC(=O)[C@H](CCCCN)NC(=O)[C@H](CO)NC(=O)[C@@H](NC(=O)[C@H](CC(=O)O)NC(=O)[C@H](CO)NC(=O)[C@@H](NC(=O)[C@H](Cc1ccccc1)NC(=O)[C@@H](NC(=O)CNC(=O)[C@H](CCC(N)=O)NC(=O)C(C)(C)NC(=O)[C@@H](N)Cc1c[nH]cn1)[C@@H](C)O)[C@@H](C)O)C(C)C)C(C)C)C(=O)N[C@@H](CC(C)C)C(=O)NC(C)(C)C(=O)N[C@H](C(=O)N[C@@H](CCC(=O)O)C(=O)O)[C@@H](C)O [Peptide 150] (H-H[Aib]QGTFTSDVSK[αMeF]LDSK([AEEA-AEEA-γGlu-C18 diacid])RAQDFVQWLL[Aib]TE-OH; N-terminus assumed)	0.166	4.2	0.355
CC(C)C[C@H](NC(=O)[C@H](Cc1c[nH]c2ccccc12)NC(=O)[C@H](CCCNC(=N)N)NC(=O)[C@@H](NC(=O)[C@H](Cc1ccccc1)NC(=O)[C@H](CC(=O)O)NC(=O)[C@H](CCC(N)=O)NC(=O)[C@H](C)NC(=O)[C@H](CCCNC(=N)N)NC(=O)[C@H](CCCCNC(=O)COCCOCCNC(=O)COCCOCCNC(=O)CC[C@H](NC(=O)CCCCCCCCCCCCCCCCCCC(=O)O)C(=O)O)NC(=O)[C@H](CO)NC(=O)[C@H](CC(=O)O)NC(=O)[C@H](CC(C)C)NC(=O)[C@](C)(Cc1ccccc1)NC(=O)[C@H](CCCCN)NC(=O)[C@H](CO)NC(=O)[C@@H](NC(=O)[C@H](CC(=O)O)NC(=O)[C@H](CO)NC(=O)[C@@H](NC(=O)[C@H](Cc1ccccc1)NC(=O)[C@@H](NC(=O)CNC(=O)[C@H](CCC(N)=O)NC(=O)C(C)(C)NC(=O)[C@@H](N)Cc1c[nH]cn1)[C@@H](C)O)[C@@H](C)O)C(C)C)C(C)C)C(=O)N[C@@H](CC(C)C)C(=O)NC(C)(C)C(=O)N[C@H](C(=O)N[C@@H](CCC(=O)O)C(=O)O)[C@@H](C)O [Peptide 151] (H-H[Aib]QGTFTSDVSK[αMeF]LDSK([AEEA-AEEA-γGlu-C20 diacid])RAQDFVRWLL[Aib]TE-OH; N-terminus assumed)	0.111	3.2	0.178

Now those with a lower EC50 [1], led by results:

EC50 [1] [nM]	% Relative Potency Ratio [1]	EC50 [2] [nM]	Structure (SMILES)
0.0246	131.3	1.63	CC(C)C[C@H](NC(=O)[C@H](Cc1c[nH]c2ccccc12)NC(=O)[C@H](CCCNC(=N)N)NC(=O)[C@@H](NC(=O)[C@H](Cc1ccccc1)NC(=O)[C@H](CC(=O)O)NC(=O)[C@H](CCC(N)=O)NC(=O)[C@H](C)NC(=O)[C@H](CCCNC(=N)N)NC(=O)[C@H](CCCCNC(=O)COCCOCCNC(=O)COCCOCCNC(=O)CC[C@H](NC(=O)CCCCCCCCCCCCCCCCC(=O)O)C(=O)O)NC(=O)[C@H](CO)NC(=O)[C@H](CC(=O)O)NC(=O)[C@H](CC(C)C)NC(=O)[C@](C)(Cc1ccccc1)NC(=O)[C@H](CCCCN)NC(=O)[C@H](CO)NC(=O)[C@@H](NC(=O)[C@H](CC(=O)O)NC(=O)[C@H](CO)NC(=O)[C@@H](NC(=O)[C@H](Cc1ccccc1)NC(=O)[C@@H](NC(=O)CNC(=O)[C@H](CCC(N)=O)NC(=O)C(C)(C)NC(=O)[C@@H](N)Cc1c[nH]cn1)[C@@H](C)O)[C@@H](C)O)C(C)C)C(C)C)C(=O)N[C@@H](C)C(=O)N[C@@H](CO)C(=O)N[C@@H](CCCNC(=N)N)C(=O)O [Peptide 146] (H-H[Aib]QGTFTSDVSK[αMeF]LDSK([AEEA-AEEA-γGlu-C18 diacid])RAQDFVRWLASR-OH; N-terminus assumed)
0.0153	5.6	0.0435	CC(C)C[C@H](NC(=O)[C@H](Cc1c[nH]c2ccccc12)NC(=O)[C@H](CCCNC(=N)N)NC(=O)[C@@H](NC(=O)[C@H](Cc1ccccc1)NC(=O)[C@H](CC(=O)O)NC(=O)[C@H](CCC(N)=O)NC(=O)[C@H](C)NC(=O)[C@H](CCCNC(=N)N)NC(=O)[C@H](CCCCNC(=O)COCCOCCNC(=O)COCCOCCNC(=O)CC[C@H](NC(=O)CCCCCCCCCCCCCCCCC(=O)O)C(=O)O)NC(=O)[C@H](CO)NC(=O)[C@H](CC(=O)O)NC(=O)[C@H](CC(C)C)NC(=O)[C@](C)(Cc1ccccc1)NC(=O)[C@H](CCCCN)NC(=O)[C@H](CO)NC(=O)[C@@H](NC(=O)[C@H](CC(=O)O)NC(=O)[C@H](CO)NC(=O)[C@@H](NC(=O)[C@H](Cc1ccccc1)NC(=O)[C@@H](NC(=O)CNC(=O)[C@H](CCC(N)=O)NC(=O)C(C)(C)NC(=O)[C@@H](N)Cc1c[nH]cn1)[C@@H](C)O)[C@@H](C)O)C(C)C)C(C)C)C(=O)N[C@@H](CCC(=O)O)C(=O)N[C@@H](C)C(=O)NC(C)(C)C(=O)NCC(=O)O [Peptide 147] (H-H[Aib]QGTFTSDVSK[αMeF]LDSK([AEEA-AEEA-γGlu-C18 diacid])RAQDFVRWLEA[Aib]G-OH; N-terminus assumed)
0.0402	27.9	0.568	CC[C@H](C)[C@H](NC(=O)[C@H](Cc1c[nH]c2ccccc12)NC(=O)[C@H](CCCNC(=N)N)NC(=O)[C@@H](NC(=O)[C@H](Cc1ccccc1)NC(=O)[C@H](CC(=O)O)NC(=O)[C@H](CCC(N)=O)NC(=O)[C@H](C)NC(=O)[C@H](CCCNC(=N)N)NC(=O)[C@H](CCCCNC(=O)COCCOCCNC(=O)COCCOCCNC(=O)CC[C@H](NC(=O)CCCCCCCCCCCCCCCCC(=O)O)C(=O)O)NC(=O)[C@H](CO)NC(=O)[C@H](CC(=O)O)NC(=O)[C@H](CC(C)C)NC(=O)[C@](C)(Cc1ccccc1)NC(=O)[C@H](CCCCN)NC(=O)[C@H](CO)NC(=O)[C@@H](NC(=O)[C@H](CC(=O)O)NC(=O)[C@H](CO)NC(=O)[C@@H](NC(=O)[C@H](Cc1ccccc1)NC(=O)[C@@H](NC(=O)CNC(=O)[C@H](CCC(N)=O)NC(=O)C(C)(C)NC(=O)[C@@H](N)Cc1c[nH]cn1)[C@@H](C)O)[C@@H](C)O)C(C)C)C(C)C)C(=O)N[C@@H](C)C(=O)N[C@@H](CCC(=O)O)C(=O)NC(C)(C)C(=O)NCC(=O)O [Peptide 148] (H-H[Aib]QGTFTSDVSK[αMeF]LDSK([AEEA-AEEA-γGlu-C18 diacid])RAQDFVRWIAE[Aib]G-OH; N-terminus assumed)
0.00871	602.8	2.65	CC(C)C[C@H](NC(=O)[C@](C)(Cc1ccccc1)NC(=O)[C@H](CCCCN)NC(=O)[C@H](CO)NC(=O)[C@@H](NC(=O)[C@H](CC(=O)O)NC(=O)[C@H](CO)NC(=O)[C@@H](NC(=O)[C@H](Cc1ccccc1)NC(=O)[C@@H](NC(=O)CNC(=O)[C@H](CCC(N)=O)NC(=O)C(C)(C)NC(=O)[C@@H](N)Cc1c[nH]cn1)[C@@H](C)O)[C@@H](C)O)C(C)C)C(=O)N[C@@H](CC(=O)O)C(=O)N[C@@H](CO)C(=O)N[C@@H](CCCCNC(=O)COCCOCCNC(=O)COCCOCCNC(=O)CC[C@H](NC(=O)CCCCCCCCCCCCCCCCC(=O)O)C(=O)O)C(=O)N[C@@H](CCCNC(=N)N)C(=O)N[C@@H](C)C(=O)N[C@@H](CCC(N)=O)C(=O)N[C@@H](CC(=O)O)C(=O)N[C@@H](Cc1ccccc1)C(=O)N[C@H](C(=O)N[C@@H](CCCNC(=N)N)C(=O)N[C@@H](Cc1c[nH]c2ccccc12)C(=O)N[C@H](C(=O)N[C@H](C(=O)N[C@@H](CCC(=O)O)C(=O)NC(C)(C)C(=O)NCC(=O)O)C(C)C)C(C)C)C(C)C [Peptide 149] (H-H[Aib]QGTFTSDVSK[αMeF]LDSK([AEEA-AEEA-γGlu-C18 diacid])RAQDFVRWVVE[Aib]G-OH; N-terminus assumed)

— patent US20250353891A1 (MEDIMMUNE LIMITED, priority 2022, published 2025)
